Target: T1, human full-length recombinant PKC βII (Homo sapiens, UniProt P05771)
T1 construct: Active human full-length recombinant PKC βII; purchased Invitrogen GmbH, Darmstadt, Germany
Experiment: Determination of PKC βII inhibition (Caliper mobility shift kinase assay)
Type: biochemical
Details: final compound concentration 1.14 μM (±0.15 μM); 60 min incubation at 32° C.
Outline: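 Compound was tested at a final 1.14 µM (±0.15 µM), with % inhibition derived from the product/(substrate+product) peak ratio on a Caliper mobility-shift read-out. Full-length PKC βII was activated by CaCl2, PS and DAG in pH 7.4 Hepes/MgCl2. Peptide and ATP were at 3 µM and 120 µM in the added mix. Incubation was 60 min at 32 °C.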

T1 sequence (P05771 1-673 isoform P05771-2): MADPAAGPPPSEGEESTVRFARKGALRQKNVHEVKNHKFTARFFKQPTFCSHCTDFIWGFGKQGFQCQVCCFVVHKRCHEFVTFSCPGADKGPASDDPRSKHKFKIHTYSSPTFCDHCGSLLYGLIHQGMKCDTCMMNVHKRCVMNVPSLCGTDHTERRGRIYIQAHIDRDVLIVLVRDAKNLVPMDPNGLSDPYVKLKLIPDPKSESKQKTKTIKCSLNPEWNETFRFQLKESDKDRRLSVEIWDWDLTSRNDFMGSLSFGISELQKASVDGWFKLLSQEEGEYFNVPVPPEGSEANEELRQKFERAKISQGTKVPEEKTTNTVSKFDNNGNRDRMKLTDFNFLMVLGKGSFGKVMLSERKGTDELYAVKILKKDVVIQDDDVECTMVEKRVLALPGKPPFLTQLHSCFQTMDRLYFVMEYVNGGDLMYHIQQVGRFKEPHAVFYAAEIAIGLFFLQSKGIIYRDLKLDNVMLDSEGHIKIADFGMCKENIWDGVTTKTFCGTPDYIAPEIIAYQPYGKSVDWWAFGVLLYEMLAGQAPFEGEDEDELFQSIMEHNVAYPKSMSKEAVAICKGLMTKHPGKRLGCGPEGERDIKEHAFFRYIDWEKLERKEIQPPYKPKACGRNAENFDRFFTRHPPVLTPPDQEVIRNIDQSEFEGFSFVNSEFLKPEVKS

Compound | inhibition at 1.14 µM [%] | % Inhibition [%]
CCc1n[nH]c2nc(-c3ccc(O)cc3)cc(CN3CCNCC3)c12 [Example 96, 4-(3-Ethyl-4-piperazin-1-ylmethyl-1H-pyrazolo[3,4-b]pyridin-6-yl)-phenol] | 74 | 
Cc1n[nH]c2nc(-c3ccc(O)cc3F)cc(C(C)N3CCNCC3)c12 (centres unmarked) [Example 97, 3-Fluoro-4-[3-methyl-4-(1-piperazin-1-yl-ethyl)-1H-pyrazolo[3,4-b]pyridin-6-yl]-phenol] | 96 | 
Cc1n[nH]c2nc(-c3ccc(O)cc3F)cc(C(C)N3C[C@@H](C)N[C@@H](C)C3)c12 (stereo partly drawn) [Example 98, 4-{4-[1-((3S,5R)-3,5-Dimethyl-piperazin-1-yl)-ethyl]-3-methyl-1H-pyrazolo[3,4-b]pyridin-6-yl}-3-fluoro-phenol] | 87 | 
Cc1n[nH]c2nc(-c3ccc(O)cc3F)cc(CN3C[C@@H](c4ccccc4)NC[C@@H]3C)c12 [Example 99, 3-Fluoro-4-[3-methyl-4-((2S,5R)-2-methyl-5-phenyl-piperazin-1-ylmethyl)-1H-pyrazolo[3,4-b]pyridin-6-yl]-phenol] | 92 | 
Cc1n[nH]c2nc(-c3ccc(O)cc3F)cc(CN3C[C@H](c4ccccc4)NC[C@H]3C)c12 [Example 100, 3-Fluoro-4-[3-methyl-4-((2R,5S)-2-methyl-5-phenyl-piperazin-1-ylmethyl)-1H-pyrazolo[3,4-b]pyridin-6-yl]-phenol] | 86 | 
Cc1n[nH]c2nc(-c3ccc(O)cc3F)cc(CN3CCNC[C@@H]3c3ccc(C(C)C)cc3)c12 [Example 101, 3-Fluoro-4-{4-[(S)-2-(4-isopropyl-phenyl)-piperazin-1-ylmethyl]-3-methyl-1H-pyrazolo[3,4-b]pyridin-6-yl}-phenol] | 52 | 
Cc1n[nH]c2nc(-c3ccc(O)cc3F)cc(CN3CCNC[C@H]3c3ccc(C(C)C)cc3)c12 [Example 102, 3-Fluoro-4-{4-[(R)-2-(4-isopropyl-phenyl)-piperazin-1-ylmethyl]-3-methyl-1H-pyrazolo[3,4-b]pyridin-6-yl}-phenol] | 85 | 
Cc1n[nH]c2nc(-c3ccc(O)cc3F)cc(CN3CCNC[C@@H]3c3ccc(C(F)(F)F)cc3)c12 [Example 103, 3-Fluoro-4-{3-methyl-4-[(S)-2-(4-trifluoromethyl-phenyl)-piperazin-1-ylmethyl]-1H-pyrazolo[3,4-b]pyridin-6-yl}-phenol] | 53 | 
Cc1n[nH]c2nc(-c3ccc(O)cc3F)cc(CN3CCNC[C@H]3c3ccc(C(F)(F)F)cc3)c12 [Example 104, 3-Fluoro-4-{3-methyl-4-[(R)-2-(4-trifluoromethyl-phenyl)-piperazin-1-ylmethyl]-1H-pyrazolo[3,4-b]pyridin-6-yl}-phenol] | 83 | 
Cc1n[nH]c2nc(-c3ccc(O)cc3F)cc(CN3CCNC[C@@H]3c3ccc(F)cc3)c12 [Example 105, 3-Fluoro-4-{4-[(S)-2-(4-fluoro-phenyl)-piperazin-1-ylmethyl]-3-methyl-1H-pyrazolo[3,4-b]pyridin-6-yl}-phenol] | 100 | 
Cc1n[nH]c2nc(-c3ccc(O)cc3F)cc(CN3CCNC[C@H]3c3ccc(F)cc3)c12 [Example 106, 3-Fluoro-4-{4-[(R)-2-(4-fluoro-phenyl)-piperazin-1-ylmethyl]-3-methyl-1H-pyrazolo[3,4-b]pyridin-6-yl}-phenol] | 104 | 
Cc1n[nH]c2nc(-c3ccc(O)cc3F)cc(CN3CCNC[C@@H]3C(F)(F)F)c12 [Example 107, 3-Fluoro-4-[3-methyl-4-((R)-2-trifluoromethyl-piperazin-1-ylmethyl)-1H-pyrazolo[3,4-b]pyridin-6-yl]-phenol] | 101 | 
Cc1n[nH]c2nc(-c3ccc(O)cc3F)cc(CN3CCNC[C@H]3C(F)(F)F)c12 [Example 108, 3-Fluoro-4-[3-methyl-4-((S)-2-trifluoromethyl-piperazin-1-ylmethyl)-1H-pyrazolo[3,4-b]pyridin-6-yl]-phenol] | 102 | 
Cc1n[nH]c2nc(-c3ccc(O)cc3F)cc(CN3CCNC[C@@H]3c3ccccc3)c12 [Example 109, 3-Fluoro-4-[3-methyl-4-((S)-2-phenyl-piperazin-1-ylmethyl)-1H-pyrazolo[3,4-b]pyridin-6-yl]-phenol] | 91 | 
Cc1n[nH]c2nc(-c3ccc(O)cc3F)cc(CN3CCNC[C@H]3c3ccccc3)c12 [Example 110, 3-Fluoro-4-[3-methyl-4-((R)-2-phenyl-piperazin-1-ylmethyl)-1H-pyrazolo[3,4-b]pyridin-6-yl]-phenol] | 42 | 
Cc1n[nH]c2nc(-c3ccc(O)cc3)cc(CN3C[C@@H](C)NC[C@@H]3c3ccccc3)c12 [Example 111, 4-[3-Methyl-4-((2S,5R)-5-methyl-2-phenyl-piperazin-1-ylmethyl)-1H-pyrazolo[3,4-b]pyridin-6-yl]-phenol] |  | 88

Compound | inhibition at 1.14 µM [%] | % Inhibition [%]
Cc1n[nH]c2nc(-c3ccc(O)cc3)cc(CN3C[C@H](C)NC[C@H]3c3ccccc3)c12 [Example 112, 4-[3-Methyl-4-((2R,5S)-5-methyl-2-phenyl-piperazin-1-ylmethyl)-1H-pyrazolo[3,4-b]pyridin-6-yl]-phenol] | 85 | 
Cc1n[nH]c2nc(-c3ccc(O)cc3)cc(CN3CCNC[C@@H]3c3ccc(C(F)(F)F)cc3)c12 [Example 113, 4-{3-Methyl-4-[(S)-2-(4-trifluoromethyl-phenyl)-piperazin-1-ylmethyl]-1H-pyrazolo[3,4-b]pyridin-6-yl}-phenol] | 81 | 
Cc1n[nH]c2nc(-c3ccc(O)cc3)cc(CN3CCNC[C@H]3c3ccc(C(F)(F)F)cc3)c12 [Example 114, 4-{3-Methyl-4-[(R)-2-(4-trifluoromethyl-phenyl)-piperazin-1-ylmethyl]-1H-pyrazolo[3,4-b]pyridin-6-yl}-phenol] | 57 | 
Cc1n[nH]c2nc(-c3ccc(O)cc3F)cc(CN3C[C@H](C)NCC3(C)C)c12 [Example 115, 3-Fluoro-4-[3-methyl-4-((S)-2,2,5-trimethyl-piperazin-1-ylmethyl)-1H-pyrazolo[3,4-b]pyridin-6-yl]-phenol] | 94 | 
Cc1n[nH]c2nc(-c3ccc(O)cc3F)cc(CN3C[C@@H](C)NCC3(C)C)c12 [Example 116, 3-Fluoro-4-[3-methyl-4-((R)-2,2,5-trimethyl-piperazin-1-ylmethyl)-1H-pyrazolo[3,4-b]pyridin-6-yl]-phenol] | 95 | 
Cc1n[nH]c2nc(-c3ccc(O)cc3F)cc(CN3CCNC[C@]3(C)c3ccccc3)c12 [Example 117, 3-Fluoro-4-[3-methyl-4-((S)-2-methyl-2-phenyl-piperazin-1-ylmethyl)-1H-pyrazolo[3,4-b]pyridin-6-yl]-phenol] | 99 | 
Cc1n[nH]c2nc(-c3ccc(O)cc3F)cc(CN3CCNC[C@@]3(C)c3ccccc3)c12 [Example 118, 3-Fluoro-4-[3-methyl-4-((R)-2-methyl-2-phenyl-piperazin-1-ylmethyl)-1H-pyrazolo[3,4-b]pyridin-6-yl]-phenol] | 84 | 
Cc1n[nH]c2nc(-c3ccc(O)cc3F)cc(CN3CCNC[C@@H]3c3cccc(F)c3)c12 [Example 119, 3-Fluoro-4-{4-[(S)-2-(3-fluoro-phenyl)-piperazin-1-ylmethyl]-3-methyl-1H-pyrazolo[3,4-b]pyridin-6-yl}-phenol] | 86 | 
Cc1n[nH]c2nc(-c3ccc(O)cc3F)cc(CN3CCNC[C@H]3c3cccc(F)c3)c12 [Example 120, 3-Fluoro-4-{4-[(R)-2-(3-fluoro-phenyl)-piperazin-1-ylmethyl]-3-methyl-1H-pyrazolo[3,4-b]pyridin-6-yl}-phenol] | 102 | 
CC[C@]1(C)CNC(C)(C)CN1Cc1cc(-c2ccc(O)cc2F)nc2[nH]nc(C)c12 [Example 121, 4-[4-((R)-2-Ethyl-2,5,5-trimethyl-piperazin-1-ylmethyl)-3-methyl-1H-pyrazolo[3,4-b]pyridin-6-yl]-3-fluoro-phenol] | 100 | 
CC[C@@]1(C)CNC(C)(C)CN1Cc1cc(-c2ccc(O)cc2F)nc2[nH]nc(C)c12 [Example 122, 4-[4-((S)-2-Ethyl-2,5,5-trimethyl-piperazin-1-ylmethyl)-3-methyl-1H-pyrazolo[3,4-b]pyridin-6-yl]-3-fluoro-phenol] | 100 | 
Cc1n[nH]c2nc(-c3ccc(O)cc3F)cc(CN3CC(C)(C)NC[C@H]3C)c12 [Example 123, 3-Fluoro-4-[3-methyl-4-((R)-2,5,5-trimethyl-piperazin-1-ylmethyl)-1H-pyrazolo[3,4-b]pyridin-6-yl]-phenol] | 88 | 
Cc1n[nH]c2nc(-c3ccc(O)cc3F)cc(CN3CC(C)(C)NC[C@@H]3C)c12 [Example 124, 3-Fluoro-4-[3-methyl-4-((S)-2,5,5-trimethyl-piperazin-1-ylmethyl)-1H-pyrazolo[3,4-b]pyridin-6-yl]-phenol] | 83 | 
Cc1n[nH]c2nc(-c3ccc(O)cc3F)cc(CN3CC(C)(C)NC[C@]3(C)C3CC3)c12 [Example 125, 4-[4-((S)-2-Cyclopropyl-2,5,5-trimethyl-piperazin-1-ylmethyl)-3-methyl-1H-pyrazolo[3,4-b]pyridin-6-yl]-3-fluoro-phenol] | 87 | 
Cc1n[nH]c2nc(-c3ccc(O)cc3F)cc(CN3CC(C)(C)NC[C@@]3(C)C3CC3)c12 [Example 126, 4-[4-((R)-2-Cyclopropyl-2,5,5-trimethyl-piperazin-1-ylmethyl)-3-methyl-1H-pyrazolo[3,4-b]pyridin-6-yl]-3-fluoro-phenol] | 91 | 
Cc1n[nH]c2nc(-c3ccc(O)cc3F)cc(CN3C[C@H](C)NCC34CCCC4)c12 [Example 127, 3-Fluoro-4-[3-methyl-4-((S)-8-methyl-6,9-diaza-spiro[4.5]dec-6-ylmethyl)-1H-pyrazolo[3,4-b]pyridin-6-yl]-phenol] | 87 | 

Reference: patent US9133181B2, “Substituted 6-(4-hydroxy-phenyl)-1H-pyrazolo[3,4-b]pyridine derivatives as kinase inhibitors” (SANOFI, priority 2012, dated 2015)
